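All cell lines were grown in 96-well plates and treated with compound for 48 hours. The concentration for 50% growth inhibition is given as GI50.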 Active and inactive are the calls of the source. Cut-off read from the data, not from the text of the source: active = GI50 up to about 1.1 µM and inactive = higher.
Experiments:
Test in all cases: DTP human tumour cell line panel, 48 h
A549 = system: A549
KM-20L2 = system: KM-20L2
UO-31 = system: UO-31
DMS-114 = system: DMS-114
IGROV-1 = system: IGROV-1
EKVX = system: EKVX
NCI-H23 = system: NCI-H23
HOP-92 = system: HOP-92
MOLT-4 = system: MOLT-4
KM12 = system: KM12
LXFL 529 = system: LXFL 529
HOP-62 = system: HOP-62
OVCAR-3 = system: OVCAR-3
K562 = system: K562
M14 = system: M14
SK-MEL-28 = system: SK-MEL-28
NCI-H522 = system: NCI-H522
SW-620 = system: SW-620
OVCAR-5 = system: OVCAR-5
UACC-257 = system: UACC-257
OVCAR-4 = system: OVCAR-4
RXF 393 = system: RXF 393
SK-OV-3 = system: SK-OV-3
SK-MEL-2 = system: SK-MEL-2
HL-60 = system: HL-60
HCT-116 = system: HCT-116
SNB-19 = system: SNB-19
U-251 = system: U-251
SK-MEL-5 = system: SK-MEL-5
COLO 205 = system: COLO 205
UACC-62 = system: UACC-62
RPMI-8226 = system: RPMI-8226
CCRF-CEM = system: CCRF-CEM
OVCAR-8 = system: OVCAR-8
SNB-75 = system: SNB-75
SR = system: SR
SN12C = system: SN12C
HT-29 = system: HT-29
M19-MEL = system: M19-MEL
Malme-3M = system: Malme-3M
SF-268 = system: SF-268
NCI-H460 = system: NCI-H460
XF498 = system: XF498
TK-10 = system: TK-10
SF-295 = system: SF-295
MDA-MB-231 = system: MDA-MB-231
T47D = system: T47D
PC-3 = system: PC-3
MDA-N = system: MDA-N
HCT-15 = system: HCT-15
HCC 2998 = system: HCC 2998
ACHN = system: ACHN
MCF7 = system: MCF7
786-0 = system: 786-0
LOX IMVI = system: LOX IMVI
MDA-MB-435 = system: MDA-MB-435
Hs-578T = system: Hs-578T
A498 = system: A498
CAKI-1 = system: CAKI-1
NCI-H226 = system: NCI-H226
NCI/ADR-RES = system: NCI/ADR-RES
SF-539 = system: SF-539
DU-145 = system: DU-145
BT-549 = system: BT-549
DLD-1 = system: DLD-1
SNB-78 = system: SNB-78
DMS-273 = system: DMS-273

Measured: GI50

COc1cccc(N2C(Cl)C(=O)C2c2c[nH]c3ccccc23)c1 (centres undefined)
inactive: A549 > 100 µM | KM-20L2 > 100 µM | UO-31 42.8 µM | DMS-114 > 100 µM | IGROV-1 > 100 µM | EKVX > 100 µM | NCI-H23 > 100 µM | HOP-92 > 100 µM | MOLT-4 > 100 µM | KM12 > 100 µM | LXFL 529 > 100 µM | HOP-62 > 100 µM | OVCAR-3 > 100 µM | K562 > 100 µM | M14 > 100 µM | SK-MEL-28 > 100 µM | NCI-H522 > 100 µM | SW-620 > 100 µM | OVCAR-5 46.1 µM | UACC-257 > 100 µM | OVCAR-4 > 100 µM | RXF 393 > 100 µM | SK-OV-3 > 100 µM | SK-MEL-2 > 100 µM | HL-60 > 100 µM | HCT-116 > 100 µM | SNB-19 > 100 µM | U-251 > 100 µM | SK-MEL-5 > 100 µM | COLO 205 > 100 µM | UACC-62 > 100 µM | RPMI-8226 > 100 µM | CCRF-CEM > 100 µM | OVCAR-8 > 100 µM | SNB-75 > 10 µM | SR > 100 µM | SN12C > 100 µM | HT-29 > 100 µM | M19-MEL > 100 µM | Malme-3M 80.9 µM | SF-268 > 100 µM | NCI-H460 > 100 µM | XF498 > 100 µM | TK-10 > 100 µM | SF-295 > 100 µM

O=C(CC(c1ccccc1)N1CCCCC1)c1ccccc1 (centres undefined)
inactive: A549 20.5 µM | MDA-MB-231 18.9 µM | UO-31 19.2 µM | T47D 17.9 µM | IGROV-1 14 µM | PC-3 15 µM | MDA-N 12.2 µM | HCC 2998 4.62 µM | EKVX 17.7 µM | ACHN 17 µM | NCI-H23 16 µM | HOP-92 15 µM | MCF7 2.47 µM | 786-0 11.2 µM | LOX IMVI 5.66 µM | MOLT-4 1.96 µM | KM12 6.82 µM | HOP-62 17.7 µM | OVCAR-3 11.2 µM | K562 1.44 µM | M14 21.5 µM | SK-MEL-28 17.8 µM | NCI-H522 12.9 µM | SW-620 4.06 µM | OVCAR-5 17.5 µM | UACC-257 14.4 µM | MDA-MB-435 12.2 µM | Hs-578T 24.8 µM | OVCAR-4 18.4 µM | RXF 393 18 µM | SK-OV-3 17.6 µM | SK-MEL-2 19.8 µM | A498 15.6 µM | HL-60 12.5 µM | HCT-116 7.31 µM | CAKI-1 15.7 µM | SNB-19 19.6 µM | U-251 9.51 µM | SK-MEL-5 15.6 µM | NCI-H226 18.4 µM | NCI/ADR-RES 22.5 µM | COLO 205 20.1 µM | UACC-62 16.6 µM | SF-539 19 µM | RPMI-8226 2.49 µM | CCRF-CEM 2.09 µM | DU-145 15.1 µM | BT-549 18.2 µM | OVCAR-8 15.5 µM | SNB-75 16.6 µM | SR 1.7 µM | SN12C 15.6 µM | HT-29 13.8 µM | Malme-3M 16 µM | SF-268 16 µM | NCI-H460 13 µM | TK-10 14.2 µM | SF-295 16.5 µM
14.9 µM: HCT-15

Cc1c(-c2coc(-c3ccc([N+](=O)[O-])cc3)n2)c(=O)n(-c2ccccc2)n1C
> 100 µM: HCT-15
inactive: A549 > 100 µM | KM-20L2 > 100 µM | UO-31 > 100 µM | DMS-114 > 100 µM | IGROV-1 > 100 µM | HCC 2998 > 100 µM | EKVX > 100 µM | DLD-1 > 100 µM | ACHN > 100 µM | NCI-H23 > 100 µM | HOP-92 > 100 µM | 786-0 > 100 µM | LOX IMVI > 100 µM | MOLT-4 > 100 µM | KM12 > 100 µM | LXFL 529 > 100 µM | HOP-62 > 100 µM | OVCAR-3 > 100 µM | SNB-78 > 100 µM | M14 > 100 µM | SK-MEL-28 > 100 µM | NCI-H522 > 100 µM | OVCAR-5 > 100 µM | UACC-257 > 100 µM | OVCAR-4 > 100 µM | SK-OV-3 > 100 µM | SK-MEL-2 > 100 µM | A498 > 100 µM | HL-60 > 100 µM | HCT-116 > 100 µM | U-251 > 100 µM | SK-MEL-5 > 100 µM | NCI-H226 > 100 µM | COLO 205 > 100 µM | UACC-62 > 100 µM | SF-539 > 100 µM | RPMI-8226 > 100 µM | CCRF-CEM > 100 µM | OVCAR-8 > 100 µM | SNB-75 > 100 µM | SN12C > 100 µM | HT-29 > 100 µM | M19-MEL > 100 µM | Malme-3M > 100 µM | SF-268 > 100 µM | NCI-H460 > 100 µM | DMS-273 > 100 µM | TK-10 > 100 µM | SF-295 > 100 µM
